In ChEMBL document CHEMBL4330123, “Synthesis of 1',2'-methano-2',3'-dideoxynucleosides as potential antivirals” (Bioorg Med Chem Lett, 2019):
Active and inactive are the calls of the source.

Experiments:
Human alphaherpesvirus 1 = assay: Antiviral activity against HSV1 assessed as inhibition of viral replication by cell-based assay; type: functional, organism-based
Human alphaherpesvirus 3 = assay: Antiviral activity against VZV assessed as inhibition of viral replication by cell-based assay; type: functional, organism-based
Cytomegalovirus = assay: Antiviral activity against CMV assessed as inhibition of viral replication by cell-based assay; type: functional, organism-based
Human gammaherpesvirus 4 = assay: Antiviral activity against EBV assessed as inhibition of viral replication by cell-based assay; type: functional, organism-based
A-375 = assay: Antiproliferative activity against human A375 cells up to 100 uM by Celltiter-Glo assay; type: functional, cell-based
SW480 = assay: Antiproliferative activity against human SW480 cells up to 100 uM by Celltiter-Glo assay; type: functional, cell-based
HCT cell line = assay: Antiproliferative activity against human HCT cells up to 100 uM by Celltiter-Glo assay; type: functional, cell-based

O=c1ccn([C@@]23C[C@@H]2C[C@@H](CO)O3)c(=O)[nH]1
inactive: inhibition (Human alphaherpesvirus 1) | inhibition (Human alphaherpesvirus 3) | inhibition (Cytomegalovirus) | inhibition (Human gammaherpesvirus 4) | Activity (A-375) | Activity (SW480) | Activity (HCT cell line)

CC(C)OC(=O)[C@H](C)NP(=O)(OC[C@@H]1C[C@H]2C[C@@]2(n2ccc(N)nc2=O)O1)Oc1ccccc1 (stereo partly drawn)
inactive: inhibition (Human alphaherpesvirus 1) | inhibition (Human alphaherpesvirus 3) | inhibition (Cytomegalovirus) | inhibition (Human gammaherpesvirus 4) | Activity (A-375) | Activity (SW480) | Activity (HCT cell line)

CC(C)OC(=O)[C@H](C)NP(=O)(OC[C@@H]1C[C@H]2C[C@@]2(n2ccc(=O)[nH]c2=O)O1)Oc1ccccc1 (stereo partly drawn)
inactive: inhibition (Human alphaherpesvirus 1) | inhibition (Human alphaherpesvirus 3) | inhibition (Cytomegalovirus) | inhibition (Human gammaherpesvirus 4) | Activity (A-375) | Activity (SW480) | Activity (HCT cell line)

Nc1ccn([C@@]23C[C@@H]2C[C@@H](CO)O3)c(=O)n1
inactive: inhibition (Human alphaherpesvirus 1) | inhibition (Human alphaherpesvirus 3) | inhibition (Cytomegalovirus) | inhibition (Human gammaherpesvirus 4) | Activity (A-375) | Activity (SW480) | Activity (HCT cell line)
